Assay results published in US12336991B2, “Factor XIIA inhibitors” (UNIVERSITY OF LEEDS, priority 2018, dated 2025).

Tests used:
Type in all cases: biochemical
thrombin = molecular target: T1, thrombin (Homo sapiens, UniProt P00734); experiment: Determination of selectivity: thrombin inhibition, chromogenic substrate GPR assay; conditions: fold selectivity for FXIIa over thrombin
T1 construct: FXa (5 nM) and thrombin (5 nM)
Method in brief: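 Thrombin (5 nM) preincubated with compound 10 min at 37 °C in 50 mM Tris, 137 mM NaCl, pH 7.4, 5% DMSO, then GPR substrate ([…]) added. Absorbance at 405 nm read kinetically for 3 h; IC50 from initial rates, converted to Ki via Ki=IC50/(1+[S]/Km).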

FXIIa = molecular target: T2, FXIIa (Homo sapiens, UniProt P00748); experiment: Determination of Factor XIIa inhibition, chromogenic substrate S-2302 assay; conditions: human FXIIa alpha
T2 sequence (P00748 373-615 limits assumed): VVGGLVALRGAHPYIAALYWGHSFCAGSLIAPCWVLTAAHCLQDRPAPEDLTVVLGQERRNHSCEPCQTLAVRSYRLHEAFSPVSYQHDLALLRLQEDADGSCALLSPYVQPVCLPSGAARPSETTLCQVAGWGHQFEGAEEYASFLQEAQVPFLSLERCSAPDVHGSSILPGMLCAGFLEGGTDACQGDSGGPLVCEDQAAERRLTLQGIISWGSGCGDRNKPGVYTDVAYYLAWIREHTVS
T2 sequence (P00748 20-372 partner limits assumed): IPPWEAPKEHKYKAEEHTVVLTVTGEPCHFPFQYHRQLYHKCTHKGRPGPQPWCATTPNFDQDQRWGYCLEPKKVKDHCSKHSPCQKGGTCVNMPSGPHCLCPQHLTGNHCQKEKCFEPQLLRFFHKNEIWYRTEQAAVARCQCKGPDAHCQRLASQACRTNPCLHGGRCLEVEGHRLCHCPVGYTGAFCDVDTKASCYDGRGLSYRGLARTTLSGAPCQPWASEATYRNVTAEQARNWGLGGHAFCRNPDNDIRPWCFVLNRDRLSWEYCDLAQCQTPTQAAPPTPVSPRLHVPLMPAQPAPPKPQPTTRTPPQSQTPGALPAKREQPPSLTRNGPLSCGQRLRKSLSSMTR
Method in brief: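 FXIIa (10 nM) preincubated with compound 10 min at 37° C. in 50 mM Tris, 137 mM NaCl pH 7.4, 5% DMSO, top concentration 500 μM, then S-2302 added ([…]). Absorbance at 405 nm read kinetically for 3 h; IC50 from initial rates, converted to Ki by Cheng-Prusoff.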

FXa = FXa (Homo sapiens, UniProt P00742); experiment: Determination of selectivity: FXa inhibition, chromogenic substrate S2765 assay; conditions: fold selectivity for FXIIa over FXa
Method in brief: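 Human FXa (5 nM) preincubated with compound (top 500 μM, 5% DMSO) 10 min at 37 °C in 50 mM Tris, 137 mM NaCl pH 7.4, then S2765 ([…]) added; A405 kinetics over 3 h at 37 °C. IC50 from initial rates, converted to Ki via Cheng-Prusoff.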

Chain of FXa (P00742 235-488 limits assumed): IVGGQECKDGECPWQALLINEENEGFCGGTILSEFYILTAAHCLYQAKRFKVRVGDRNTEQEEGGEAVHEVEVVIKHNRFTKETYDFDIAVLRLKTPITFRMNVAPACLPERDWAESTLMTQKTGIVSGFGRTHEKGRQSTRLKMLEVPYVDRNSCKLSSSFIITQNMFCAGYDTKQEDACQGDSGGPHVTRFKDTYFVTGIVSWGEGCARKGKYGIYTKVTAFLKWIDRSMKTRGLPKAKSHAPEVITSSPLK
Chain of FXa (P00742 41-179 partner limits assumed): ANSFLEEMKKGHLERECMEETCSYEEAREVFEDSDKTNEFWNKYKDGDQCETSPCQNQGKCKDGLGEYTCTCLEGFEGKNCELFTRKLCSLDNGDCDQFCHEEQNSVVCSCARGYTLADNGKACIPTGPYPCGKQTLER

Structure (SMILES)	Thrombin (human)/FXIIa alpha (human) (thrombin)	Ki (FXIIa)	FXa (human)/FXIIa alpha (human) (FXa)
COc1ccc(C[C@@H]2C[C@@H](C(=O)NCc3cc4cnccc4[nH]3)N(C(=O)[C@H]3C[C@@H](c4cnn(C)c4)CN3)C2)cc1 [Example M00959]	+++ (fold selectivity values greater than 100)	< 200 nM	∘∘∘
Cn1nnc2cc(CNC(=O)[C@@H]3C[C@@H](Cc4ccccc4F)CN3C(=O)[C@H]3C[C@@H](c4ccccc4)CN3)ccc21 [Example M05332]	++ (fold selectivity value of 10 to 100)	> 2000 nM	∘∘
COc1ccc(C[C@@H]2C[C@@H](C(=O)NCc3ccc4c(c3)nnn4C)N(C(=O)[C@H](N)CCC(=O)N3CCNCC3)C2)cc1 [Example M05393]	+++ (fold selectivity values greater than 100)	200 to 2000 nM	∘∘∘
Cn1nnc2cc(CNC(=O)[C@@H]3C[C@@H](Cc4ccc(F)cc4)CN3C(=O)C3C[C@@H](c4ccccc4)CN3)ccc21 (stereo partly drawn) [Example M05324]	++ (fold selectivity value of 10 to 100)	> 2000 nM	∘∘
COc1ccc(C[C@@H]2C[C@@H](C(=O)NCc3ccc4c(c3)nnn4C)N(C(=O)[C@H]3C[C@@H](c4ccccc4)CN3)C2)cc1 [Example M05289]	+++ (fold selectivity values greater than 100)	200 to 2000 nM	∘∘∘
N#C[C@@H]1C[C@@H](C(=O)NCc2ccc(CN)cc2)N(C(=O)[C@H](N)CCc2ccccc2)C1 [Example M05091, (2S,4R)-1-((R)-2-Amino-4-phenyl-butyryl)-4-cyano-pyrrolidine-2-carboxylic acid 4-aminomethyl-benzylamide]	+ (fold selectivity values less than 10)	> 2000 nM	∘∘
COc1ccc(C[C@@H]2C[C@@H](C(=O)NCc3ccc4c(c3)nnn4C)N(C(=O)[C@@H]3NCCc4ccccc43)C2)cc1 [Example M05368]	++ (fold selectivity value of 10 to 100)	> 2000 nM	∘∘
Cn1nnc2cc(CNC(=O)[C@@H]3C[C@@H](Cc4ccc(-c5cn[nH]c5)cc4)CN3C(=O)[C@H]3C[C@@H](c4ccccc4)CN3)ccc21 [Example M05364]	++ (fold selectivity value of 10 to 100)	> 2000 nM	∘∘
Cn1nnc2cc(CNC(=O)[C@@H]3C[C@H](NC(=O)CCCc4ccccc4)CN3C(=O)[C@H](N)CCc3ccccc3)ccc21 [Example M05196]	++ (fold selectivity value of 10 to 100)	> 2000 nM	∘∘
COc1ccc2c(c1)CCNC2C(=O)N1C[C@H](Cc2ccncc2)C[C@H]1C(=O)NCc1ccc2c(c1)nnn2C (stereo partly drawn) [Example M05463]	++ (fold selectivity value of 10 to 100)	> 2000 nM	∘∘
Cn1nnc2cc(CNC(=O)[C@@H]3C[C@H](c4ccccc4Oc4ccccc4)CN3C(=O)[C@H](N)CCc3ccccc3)ccc21 [Example M05174]	++ (fold selectivity value of 10 to 100)	> 2000 nM	∘∘
Nc1nccc2cc(CNC(=O)[C@@H]3C[C@@H](Cc4cccc(Cl)c4)CN3C(=O)[C@H](N)CCC(=O)N3CCCC3)ccc12 [Example M05266]	+ (fold selectivity values less than 10)	200 to 2000 nM	∘∘
Cn1nnc2cc(CNC(=O)[C@@H]3C[C@@H](Cc4cccc(Br)c4)CN3C(=O)[C@H](N)CCC(=O)N3CCCC3)ccc21 [Example M05317]	+++ (fold selectivity values greater than 100)	< 200 nM	∘∘∘
COc1ccc(C[C@@H]2C[C@@H](C(=O)NCc3ccc4c(c3)nnn4C)N(C(=O)[C@H]3CC(c4ccc[nH]c4=O)CN3)C2)cc1 (stereo partly drawn) [Example M05419]	+++ (fold selectivity values greater than 100)	< 200 nM	∘∘∘
CC(C)Oc1ccc(CC2C[C@@H](C(=O)NCc3ccc4c(c3)nnn4C)N(C(=O)[C@H]3C[C@@H](c4ccccc4)CN3)C2)cc1 (stereo partly drawn) [Example M05349]	++ (fold selectivity value of 10 to 100)	200 to 2000 nM	∘∘
CN(C)[C@H](CCC(=O)N1CCCC1)C(=O)N1C[C@H](Cc2ccncc2)C[C@H]1C(=O)NCc1ccc2c(c1)nnn2C [Example M05220]	+++ (fold selectivity values greater than 100)	200 to 2000 nM	∘∘∘
COc1ccc(C[C@@H]2C[C@@H](C(=O)NCc3ccc4c(c3)nnn4C)N(C(=O)[C@H]3CC(c4ccnn4C)CN3)C2)cc1 (stereo partly drawn) [Example M05376]	++ (fold selectivity value of 10 to 100)	> 2000 nM	∘∘
COc1ccc(C[C@@H]2C[C@@H](C(=O)NCc3ccc4c(c3)nnn4C)N(C(=O)[C@H]3C[C@@H](c4cnn(C)c4)CN3)C2)cc1 [Example M05381]	+++ (fold selectivity values greater than 100)	200 to 2000 nM	∘∘∘
Cn1ncc2cc(CNC(=O)[C@@H]3C[C@@H](c4ccccc4)CN3C(=O)[C@H](N)CCc3ccccc3)ccc21 [Example M05188]	++ (fold selectivity value of 10 to 100)	> 2000 nM	∘∘
COc1ccc(C[C@@H]2C[C@@H](C(=O)NCc3ccc4c(c3)nnn4C)N(C(=O)[C@H]3CC(c4cn[nH]c4)CN3)C2)cc1 (stereo partly drawn) [Example M05454]	++ (fold selectivity value of 10 to 100)	> 2000 nM	∘∘
Cc1ccc(C[C@@H]2C[C@@H](C(=O)NCc3ccc4c(c3)nnn4C)N(C(=O)[C@H]3C[C@@H](c4ccccc4)CN3)C2)cc1 [Example M05328]	++ (fold selectivity value of 10 to 100)	200 to 2000 nM	∘∘∘
COc1ccc(C[C@@H]2C[C@@H](C(=O)NCc3cc4ccncc4[nH]3)N(C(=O)[C@H](N)CCC(=O)N3CCCC3)C2)cc1 [Example M00952]	+++ (fold selectivity values greater than 100)	< 200 nM	∘∘∘
Cn1nc(Cl)c2cc(CNC(=O)[C@@H]3C[C@@H](Cc4cccnc4)CN3C(=O)[C@H](N)CCC(=O)N3CCCC3)ccc21 [Example M05224]	+++ (fold selectivity values greater than 100)	< 200 nM	∘∘∘
CN(C1CCCCC1)C1C[C@@H](C(=O)NCc2ccc3c(c2)nnn3C)N(C(=O)[C@H](N)CCc2ccccc2)C1 (stereo partly drawn) [Example M05242]	++ (fold selectivity value of 10 to 100)	> 2000 nM	∘∘
COc1ccc(C[C@@H]2C[C@@H](C(=O)NCc3ccc4c(c3)nnn4C)N(C(=O)[C@H](N)CCC(=O)N3C(C)CCC3C)C2)cc1 (stereo partly drawn) [Example M05399]	+++ (fold selectivity values greater than 100)	< 200 nM	∘∘∘
